This passage reports pest or weed control results from patent US20220125051A1, “PRE-HARVEST DESICCATION METHOD” (SYNGENTA CROP PROTECTION AG, priority 2019, published 2022).

Holding throughout (assay): Post-emergence efficacy, Method A
What all share (assay type): in vivo

For one experiment, the system named is Eleusine indica (ELEIN). The conditions noted are these: Eleusine indica, post-emergence, 312 h, evaluated after 13 days. In short, it runs like this: (§1)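 Post-emergence spray on 14-day-old glasshouse plants (24/16 °C day/night, 14 h photoperiod, 65% humidity). Test material was taken up in acetone and IF50 emulsifier mix, then diluted with sodium lauryl ether sulphate (0.25% or 1%) plus 1% ammonium sulphate. Damage was rated 13 days later, 100 = total.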

In experiment [1] the test system is Chenopodium album (CHEAL). As to conditions: Chenopodium album, post-emergence, 312 h, evaluated after 13 days. Put shortly:
as §1

The subject of experiment [2] is Echinochloa crus-galli (ECHCG). The conditions noted are these: Echinochloa crus-galli, post-emergence, 312 h, evaluated after 13 days. In short, it runs like this: as §1
In experiment [3] the test system is Amaranthus palmeri (AMAPA). The conditions noted are these: Amaranthus palmeri, post-emergence, 312 h, evaluated after 13 days. Put shortly:
as §1

The subject of experiment [4] is Ipomoea hederacea (IPOHE). The conditions noted are these: Ipomoea hederacea, post-emergence, 312 h, evaluated after 13 days. Put shortly:
as §1

The test system of a further experiment is Lolium perenne (LOLPE). As to conditions: Lolium perenne, post-emergence, 312 h, evaluated after 13 days. In short, it runs like this: as §1
Experiment [5] concerns Euphorbia heterophylla (EPHHL). As to conditions: Euphorbia heterophylla, post-emergence, 312 h, evaluated after 13 days. Put shortly: as §1
The test system of the next experiment is Setaria faberi (SETFA). As to conditions: Setaria faberi, post-emergence, 312 h, evaluated after 13 days. In short, it runs like this: as §1
Experiment [6] concerns Digitaria sanguinalis (DIGSA). As to conditions: Digitaria sanguinalis, post-emergence, 312 h, evaluated after 13 days. Put shortly: as §1
Where [7] appears, read: Application Rate 500 g/Ha, Method A, read-out: Control of weed species after post-emergence application, ELEIN (100=total damage to plant; 0=no damage to plant).
[8] abbreviates: Application Rate 500 g/Ha, Method A, read-out: Control of weed species after post-emergence application, CHEAL (100=total damage to plant; 0=no damage to plant).
[9] abbreviates: Application Rate 500 g/Ha, Method A, read-out: Control of weed species after post-emergence application, ECHCG (100=total damage to plant; 0=no damage to plant).
Setting [10] is: Application Rate 500 g/Ha, Method A, read-out: Control of weed species after post-emergence application, AMAPA (100=total damage to plant; 0=no damage to plant).
The mark [11] stands for this setting: Application Rate 500 g/Ha, Method A, read-out: Control of weed species after post-emergence application, IPOHE (100=total damage to plant; 0=no damage to plant).
[12] abbreviates: Application Rate 500 g/Ha, Method A, read-out: Control of weed species after post-emergence application, LOLPE (100=total damage to plant; 0=no damage to plant).
Where [13] appears, read: Application Rate 500 g/Ha, Method A, read-out: Control of weed species after post-emergence application, EPHHL (100=total damage to plant; 0=no damage to plant).
[14] abbreviates: Application Rate 500 g/Ha, Method A, read-out: Control of weed species after post-emergence application, SETFA (100=total damage to plant; 0=no damage to plant).
The mark [15] stands for this setting: Application Rate 500 g/Ha, Method A, read-out: Control of weed species after post-emergence application, DIGSA (100=total damage to plant; 0=no damage to plant).
[16] abbreviates: Application rate 500 g/Ha, 100=total damage to plant, 0=no damage to plant, read-out: Control of weed species after post-emergence application, ELEIN.
The mark [17] stands for this setting: Application rate 500 g/Ha, 100=total damage to plant, 0=no damage to plant, read-out: Control of weed species after post-emergence application, CHEAL.
[18] abbreviates: Application rate 500 g/Ha, 100=total damage to plant, 0=no damage to plant, read-out: Control of weed species after post-emergence application, ECHCG.
Where [19] appears, read: Application rate 500 g/Ha, 100=total damage to plant, 0=no damage to plant, read-out: Control of weed species after post-emergence application, AMAPA.
[20] abbreviates: Application rate 500 g/Ha, 100=total damage to plant, 0=no damage to plant, read-out: Control of weed species after post-emergence application, IPOHE.
Setting [21] is: Application rate 500 g/Ha, 100=total damage to plant, 0=no damage to plant, read-out: Control of weed species after post-emergence application, LOLPE.
[22] abbreviates: Application rate 500 g/Ha, 100=total damage to plant, 0=no damage to plant, read-out: Control of weed species after post-emergence application, EPHHL.
The mark [23] stands for this setting: Application rate 500 g/Ha, 100=total damage to plant, 0=no damage to plant, read-out: Control of weed species after post-emergence application, SETFA.
Where [24] appears, read: Application rate 500 g/Ha, 100=total damage to plant, 0=no damage to plant, read-out: Control of weed species after post-emergence application, DIGSA.

Where two headings read alike, the source gives them in different places.

Regarding `O=C(O)CC[n+]1ccc(-c2ncc(Cl)c(=O)[nH]2)cn1` [Compound A161, 3-[4-(5-chloro-6-oxo-1H-pyrimidin-2-yl)pyridazin-1-ium-1-yl]propanoic acid 2,2,2-trifluoroacetate], the pest or weed control at 500 g/ha in the experiment with Eleusine indica (ELEIN) (setting [7]) worked out at 20%; in experiment [1] (setting [8]), 70%; in experiment [2] (setting [9]), 20%; in experiment [3] (setting [10]), 30%; in experiment [4] (setting [11]) it was 20%; in the experiment on Lolium perenne (LOLPE) (setting [12]), 10%. Moreover, the pest or weed control at 500 g/ha in experiment [5] (setting [13]) came to 50%; in the experiment with Setaria faberi (SETFA) (setting [14]), 10%; in [6] (setting [15]), 20%.

For `Cc1c[n+](CCC(=O)O)ncc1-c1ncccn1` [Compound A153], the pest or weed control at 500 g/ha was 20% in the experiment with Eleusine indica (ELEIN) (setting [7]); 60% in experiment [1] (setting [8]); 40% in [2] (setting [9]); 90% in [3] (setting [10]); 20% in [4] (setting [11]); 0% with Lolium perenne (LOLPE) (setting [12]). The pest or weed control at 500 g/ha is 40% in experiment [5] (setting [13]), 20% in the experiment on Setaria faberi (SETFA) (setting [14]) and 20% in experiment [6] (setting [15]).

Turning to `Cc1cnc(-c2cc[n+](CCC(=O)O)nc2)c(C)c1` [Compound A177], the pest or weed control at 500 g/ha in the experiment on Eleusine indica (ELEIN) (setting [7]) amounted to 10%; in experiment [1] (setting [8]), 50%; in experiment [2] (setting [9]) it was 0%; in experiment [3] (setting [10]), 60%; in experiment [4] (setting [11]) it was 20%; with Lolium perenne (LOLPE) (setting [12]) it was 0%. The pest or weed control at 500 g/ha was found to be 30% in [5] (setting [13]), 0% in the experiment with Setaria faberi (SETFA) (setting [14]) and 10% in experiment [6] (setting [15]).

For `O=C(O)CC[n+]1ccc(-c2cncc(C(F)(F)F)n2)cn1` [Compound A120], the pest or weed control at 500 g/ha in the experiment on Eleusine indica (ELEIN) (setting [16]) was found to be 30%; in experiment [1] (setting [17]), 70%; in experiment [2] (setting [18]) it was 40%; in experiment [3] (setting [19]) it was 90%; in [4] (setting [20]), 10%; in the experiment with Lolium perenne (LOLPE) (setting [21]), 20%. Besides, the pest or weed control at 500 g/ha in experiment [5] (setting [22]) came out at 50%; in the experiment with Setaria faberi (SETFA) (setting [23]), 40%; in [6] (setting [24]), 40%.

On to `Nc1cc(-c2cc[n+](CCS(=O)(=O)[O-])nc2)ncn1` [Compound A164], for which the pest or weed control at 500 g/ha was 80% in the experiment on Eleusine indica (ELEIN) (setting [7]); 80% in experiment [1] (setting [8]); 30% in experiment [2] (setting [9]); 100% in experiment [3] (setting [10]); 40% in [4] (setting [11]); 40% in the experiment with Lolium perenne (LOLPE) (setting [12]). Besides, the pest or weed control at 500 g/ha worked out at 90% in experiment [5] (setting [13]), 50% in the experiment with Setaria faberi (SETFA) (setting [14]) and 30% in [6] (setting [15]).

In the case of `CO[N-]C(=O)C[n+]1ccc(-c2ncccn2)cn1` [Compound A219], the pest or weed control at 500 g/ha in the experiment with Eleusine indica (ELEIN) (setting [7]) is 100%; in experiment [1] (setting [8]) it was 80%; in [2] (setting [9]) it was 40%; in experiment [3] (setting [10]), 100%; in [4] (setting [11]), 60%; in the experiment on Lolium perenne (LOLPE) (setting [12]) it was 70%. The pest or weed control at 500 g/ha was 90% in experiment [5] (setting [13]), 90% in the experiment with Setaria faberi (SETFA) (setting [14]) and 70% in experiment [6] (setting [15]).

For the compound `Cc1nccc(-c2cc[n+](CCS(=O)(=O)[O-])nc2)n1` [Compound A31], the pest or weed control at 500 g/ha in the experiment on Eleusine indica (ELEIN) (setting [16]) was 80%; in [1] (setting [17]) it was 100%; in [2] (setting [18]), 60%; in experiment [3] (setting [19]) it was 100%; in experiment [4] (setting [20]) it was 100%; with Lolium perenne (LOLPE) (setting [21]), 60%. For the same compound, the values for the pest or weed control at 500 g/ha (in experiment [5] (setting [22]); with Setaria faberi (SETFA) (setting [23]); in experiment [6] (setting [24])) were 50%, 50% and 90%, respectively.

Turning to `O=C(O)CC[n+]1ccc(-c2nccc(=O)[nH]2)cn1` [Compound A127], the pest or weed control at 500 g/ha with Eleusine indica (ELEIN) (setting [16]) came to 20%; in experiment [1] (setting [17]), 20%; in experiment [2] (setting [18]), 40%; in experiment [3] (setting [19]) it was 10%; in [4] (setting [20]), 10%; in the experiment on Lolium perenne (LOLPE) (setting [21]), 10%. The pest or weed control at 500 g/ha amounted to 20% in experiment [5] (setting [22]), 30% in the experiment with Setaria faberi (SETFA) (setting [23]) and 80% in [6] (setting [24]).

With `CC(C(=O)OC(C)(C)C)[n+]1ccc(-c2ncccn2)cn1` (stereo not drawn) [Compound A193], the pest or weed control at 500 g/ha was 30% in the experiment with Eleusine indica (ELEIN) (setting [7]); 60% in experiment [1] (setting [8]); 10% in experiment [2] (setting [9]); 70% in experiment [3] (setting [10]); 30% in experiment [4] (setting [11]); 10% in the experiment on Lolium perenne (LOLPE) (setting [12]). Besides, the results for the pest or weed control at 500 g/ha (in [5] (setting [13]); with Setaria faberi (SETFA) (setting [14]); in [6] (setting [15])) were 60%, 10% and 30%, respectively.

Consider `O=C(O)CC[n+]1ccc(-c2ncc(C(F)(F)F)cc2Cl)cn1` [Compound A197], for which the pest or weed control at 500 g/ha was found to be 10% with Eleusine indica (ELEIN) (setting [7]); 10% in [1] (setting [8]); 0% in [2] (setting [9]); 100% in experiment [3] (setting [10]); 10% in experiment [4] (setting [11]); 0% in the experiment with Lolium perenne (LOLPE) (setting [12]). Also, the pest or weed control at 500 g/ha in experiment [5] (setting [13]) was 10%; in the experiment with Setaria faberi (SETFA) (setting [14]), 0%; in experiment [6] (setting [15]), 20%.

`O=S(=O)([O-])CC[n+]1ccc(-c2ncc(Cl)cn2)cn1` [Compound A17]: the pest or weed control at 500 g/ha in the experiment with Eleusine indica (ELEIN) (setting [16]) was determined as 60%; in experiment [1] (setting [17]), 30%; in experiment [2] (setting [18]) it was 40%; in experiment [3] (setting [19]), 100%; in experiment [4] (setting [20]) it was 30%; in the experiment with Lolium perenne (LOLPE) (setting [21]), 10%. Further, the figures for the pest or weed control at 500 g/ha (in experiment [5] (setting [22]); in the experiment with Setaria faberi (SETFA) (setting [23]); in experiment [6] (setting [24])) were 30%, 40% and 60%, respectively.

Turning to `O=P(O)(O)CC[n+]1ccc(-c2ncccn2)cn1` [Compound A198], the pest or weed control at 500 g/ha in the experiment on Eleusine indica (ELEIN) (setting [7]) was found to be 80%; in experiment [1] (setting [8]), 100%; in experiment [2] (setting [9]), 80%; in [3] (setting [10]) it was 100%; in experiment [4] (setting [11]) it was 50%; in the experiment with Lolium perenne (LOLPE) (setting [12]), 50%. For the same compound, the pest or weed control at 500 g/ha in experiment [5] (setting [13]) is 100%; with Setaria faberi (SETFA) (setting [14]), 90%; in [6] (setting [15]), 80%.
